Test results published in US20250268870A1, “SMALL MOLECULE INDUCERS OF CARDIOMYOCYTES TO IMPROVE CARDIAC STRUCTURE AND FUNCTION” (UNIVERSITY OF MARYLAND, BALTIMORE, priority 2022, published 2025).

Experiments:
iDCM-CMs [1] = assay: PCNT / MTOC localization (centriolar, split, perinuclear) in C19-treated iDCM-CMs, quantitated by a blinded observer; type: cell-based, human; details: for initiation of the perinuclear MTOC: iDCM-CMs (cDCM-CMs) treated with C19
iDCM-CMs [2] = assay: Sarcomere formation in C19-treated iDCM-CMs (confocal imaging); type: cell-based, human; details: C19-treated iDCM-CMs vs untreated iDCM-CMs
iDCM-CMs [3] = assay: Cell shortening (contractility) on Matrigel mattress, edge detection; type: cell-based, human
CMs = details: previously shown; cited from earlier work
RTTN = assay: Knockdown of RTTN in zebrafish embryos: incidence of pericardial edema; type: in vivo; details: zebrafish embryos at 48 hours post-fertilization; Vehicle=8.4%
Procedure: Single mating pairs were bred overnight, and embryos were kept at 28.5° C., consistent with standard practices. Injections were performed using an Eppendorf™ FemtoJet 4i microinjector. Needles were pulled using a Sutter Instrument Co. Flaming/Brown Micropipette Puller Model P-97 with filaments from World Precision Instruments (Item #TW100F-4) (heat=90, pull=30, and velocity=7). The translational blocking morpholino oligonucleotide 5′-[…]-3′ (SEQ ID NO: 41) was purchased from GeneTools™. mRNA was generated from pcDNA-dCas9 (Addgene™) using the mMESSAGE mMACHINE T7 ULTRA Transcription Kit from Invitrogen™. Alt-R CRISPR-Cas9 sgRNA, sgRNA #1: 5′-[…]-3 (SEQ ID NO:42) and sgRNA #2: 5′-[…]-3′ (SEQ ID NO:43) were purchased from Integrated DNA Technologies. Wild-type NHGRI embryos were injected at the 1-2 cell stage with MO (6 ng) or dCas9 mRNA (1 ng) with or without the CRISPRi sgRNA (0.5 ng). At 8 hours post fertilization (hpf), E3 water was replaced with 0.003% 1-phenyl-2-thiourea (PTU) in E3, and the embryos remained in PTU until they were phenotyped for cardiac edema, and heart morphology at 48 hpf.

Compound | initiation of the perinuclear MTOC (iDCM-CMs [1]) | initiation of the perinuclear MTOC (iDCM-CMs [1]; listed as C192) | PCNT perinuclear, % of CMs (iDCM-CMs [1]; iDCM-CMs + 10 μM C19 for 48 hours from D30, D32 CMs, control-CMs 23.1%, untreated iDCM-CMs 7.6%, p=0.0082) [%] | sarcomere formation (iDCM-CMs [2]) | cell shortening versus healthy control-CMs (iDCM-CMs [3]; D40 C19-treated iDCM-CMs vs control-CMs, p=0.682 (NS)) | contractility (% cell shortening) (iDCM-CMs [3]; D40 C19-treated iDCM-CMs vs untreated iDCM-CMs, p=0.001) | centrosome reduction in CMs (CMs) | embryos with large pericardial edema (RTTN) [%]
OCCCCOc1nsnc1-c1ccc(Cl)c(Cl)c1 [C19] | improved initiation of the perinuclear MTOC | restored initiation of the perinuclear MTOC | 23.6 | improved sarcomere formation | comparable levels of cell shortening | significantly improved | induce centrosome reduction | –
MO: translational blocking morpholino oligonucleotide 5′-TCTTTATGAGTGACGATAACTCCAT-3′ (SEQ ID NO: 41) against zebrafish RTTN (all phosphorodiamidate morpholino (PMO)) | – | – | – | – | – | – | – | 45.6
